The nature of series [1]: in vitro. The class given is cell-based. Conditions: human.
Series [2] in a line: in vitro. The class given is cell-based. The settings on record: African green monkey.
The test system of series [3] is SARS-CoV-2 Gamma strain. As to the kind of experiment: microbe, parasite or virus in culture. Type of series: cell-based. Conditions: Severe acute respiratory syndrome coronavirus 2; Calu-3, Gamma strain, MOI 0.1, 48 hpi.
Series [4] concerns SARS-CoV-2. Type of series: cell-based.
Series [5] deals with SARS-CoV-2. The settings on record: cited from earlier work.
The conditions of series [6]: cited from earlier work; for Plasma protein binding: Table S3, ref DrugBank, PubChem, Warhurst, et al JAC 2003, Schroeder and Gerber Toxicol. Rep. 2014.
For series [7] the following is noted: ref DrugBank; PubChem; Warhurst, et al JAC 2003; Schroeder and Gerber Toxicol. Rep. 2014; cited from earlier work.
Series [8] has as its system SARS-CoV-2-infected monocytes. The class given is cell-based, human.
The test system of series [9] is SARS-CoV-2. The class given is cell-based. This is another data set of the same source.
Series [10] deals with SARS-CoV-2. Conditions: Vero-E6, cited from earlier work.
Series [11] has as its system tuberculosis. The settings on record: cited from earlier work.
The conditions of series [12]: cited from earlier work; for Cmax: human plasma.
For series [13] the following is noted: PBPK input, cited from earlier work.

This is an account of results in paper PMC8874959 (Viruses, 2022).

SMILES strings stand for the structures. In brackets after ≈: the same amount, converted by molar mass. Entries after “also recorded” stand apart in the source; their conditions may differ. Read-outs that look alike come from different tables or passages of the source.

Regarding `CCC(CC)COC(=O)[C@H](C)N[P@](=O)(OC[C@H]1O[C@@](C#N)(c2ccc3c(N)ncnn23)[C@H](O)[C@@H]1O)Oc1ccccc1` [Remdesivir], the CC50 was determined as 480 ± 20 µM in [1] and 512 ± 30 µM in [2]. This compound had an EC50 in series [3] of 0.01 ± 0.008 µM. Besides, in [3], the 90% effect concentration (EC90) came out at 0.2 ± 0.02 µM. The “Improvement of remdesivir's efficiency” value in [4] was found to be 200 fold.

As for `CCN(CCO)CCCC(C)Nc1ccnc2cc(Cl)ccc12` (stereo not drawn) [Hydroxychloroquine, hydroxychloroquine], the “Antiviral activity in SARS-CoV-2-infected Calu-3 cells” value in series [5] is listed as “lacks antiviral activity”. In [6], the Plasma protein binding is 50%. Further, in series [7], the “Lipinski’s rule of five” value is given as “Yes”, the LogP is listed as 4.12, the Physiological charge entry was “+2” and the pKa1 is listed as less than 4.0. For the same compound, in series [7], the pKa2 was 8.3 and the pKa3 is on record as 9.7.

`OC(c1cc(C(F)(F)F)nc2c(C(F)(F)F)cccc12)C1CCCCN1` (stereo not drawn) [Mefloquine]: the CC50 in [1] was found to be 19.9 ± 0.06 µM. Further, the CC50 in series [2] turned out to be 9.2 ± 0.3 µM. In addition, in [3], the midpoint of the response, the EC50, lay at 1.2 ± 0.4 µM and the EC90 turned out to be 2.7 ± 0.3 µM. In [8], the “Virus-induced IL-6 levels” value is given as “reduce the augmentation of these cytokines in a donor-dependent manner”, the “Virus-induced TNF-α levels” value was “reduce the augmentation of these cytokines in a donor-dependent manner” and the “Virus-induced monocyte death (LDH)” value is given as “reduce virus-induced monocyte death”. The “Number of viral particles in the endosomes” value in series [9] is on record as “reduced the number of viral particles in the endosomes”. The EC90 in [10] (ref 8 (supplement)) was 3.0643 µg/mL (≈ 8.1 µM). In addition, the EC90 in [10] (ref 9 (supplement)) was 2.4552 µg/mL (≈ 6.49 µM). The EC90 in series [10] (ref 10 (supplement)) is 2.5138 µg/mL (≈ 6.64 µM). In series [11], the Minimal inhibitory concentration is listed as 20 µM (≈ 7.57 µg/mL). In [12], the Half-life result is “measured in weeks” and the maximum concentration (Cmax) is given as 3279 ng/mL. Moreover, the Cmax in series [12] (equivalent) was 8.67 µM. Further, the Protein binding in [6] (PBPK input, ref 12 (supplement)) is listed as 98%. Moreover, the Plasma protein binding in [6] is given as more than 98%. Further, the Half-life in [13] (ref 11 (supplement)) is listed as 2-4 weeks. Besides, in series [13] (ref 12 (supplement)), the Intrinsic clearance is given as 10.47 L/h, the “Log P” value is 3.87 and the “pKa (diprotic base)” value is listed as 8.7. Besides, in series [7], the LogP was 3.90, the Water solubility is 38 µg/mL, the pKa1 result is reported as “lower than 3.0” and the pKa2 is reported as 9.46. Further, in series [7], the pKa3 is 13.79.

Consider `CCN(CC)CCCC(C)Nc1ccnc2cc(Cl)ccc12` (stereo not drawn) [Chloroquine], for which the 50% cytotoxic concentration (CC50) at 72 h in series [2] (Vero E6, 72 h) came to 259 ± 5 µM. Besides, in series [5], the “Antiviral activity in SARS-CoV-2-infected Calu-3 cells” value was “inactive; also recorded: lacks antiviral activity”. The Plasma protein binding in series [6] was 46-74%.
